Laboratory results taken from US20080318970A1, “Treatment of Infectious Diseases” (priority 2004, published 2008).
Like-named read-outs stand apart in the source and are kept apart here.

Key:
E. coli, LN 3164 [1] = assay: Effect of chemosensitising compounds on DR (DR ratio) with ciprofloxacin, microtiter assay; format: cell-based; conditions: for DR ratio: MIC ciprofloxacin alone / MIC ciprofloxacin + chemosensitising compound at ¼ of its MIC
Description: The effects of the chemosensitising compounds on DR were studied by the microtiter assay described above by exposing cells to 0-64 μg/ml anti-infective drug in the absence or presence of chemosensitising compound. Each experiment was repeated in tripleduplicate. MIC values represent the mean values of two separate experiments.
A log phase culture of bacteria was diluted with fresh pre-warmed medium and adjusted to a defined OD at 600 nm in order to give a final concentration of 1×10^4 bacteria/ml medium in each well. […] Anti-infective agent was added to the bacterial culture in the wells in two-fold dilutions in order to give final concentrations ranging from 0 to 64 μg/ml. Trays were incubated at 37° C. for 16 h. The DR ratio was defined as the ratio between the MIC value for anti-infective agent alone divided by the MIC for the anti-infective agent in the presence of the chemosensitising compound. This ratio represents the increase in apparent potency of the anti-infective agent caused by the chemosensitising compound, and may be expressed as
DR ratio=(MICanti-infective agent)/(MICanti-infective agent+chemosensitising compound)

E. coli, LN 3164 [2] = assay: MIC susceptibility test, microdilution broth method (NCCLS), chemosensitising compound alone; format: cell-based; conditions: 16 h
Description: Bacteria were sub-cultured on Mueller-Hinton agar plates and incubated over night at 37° C. Pre-warmed Mueller-Hinton broth was inoculated with colonies from the plate and incubated for approximately three hours to achieve a log phase culture. The log phase culture of bacteria was diluted with fresh pre-warmed medium and adjusted to a defined Optical Density (OD) at 600 nm in order to give a final assay concentration of 1×10^4 bacteria/ml medium.
Cell growth was tested using the MIC susceptibility tests by use of the microdilution broth method in accordance to the NCCLS Guidelines (NCCLS Guidelines, Methods for Dilution Antimicrobial Susceptibility Tests for Bacteria That Grow Aerobically; Approved Standard, Sixth Edition, Volume 23; Number 2). A 100% Mueller-Hinton broth and a bacterial concentration of 1×10^4/ml were used.
A log phase culture of bacteria was diluted with fresh pre-warmed medium and adjusted to a defined OD at 600 nm in order to give a final concentration of 1×10^4 bacteria/ml medium in each well. Each chemosensitising compound was added to the bacterial culture in the wells in two-fold dilutions in order to give final concentrations ranging from 8 to 500 μg/ml. Trays were incubated at 37° C. for 16 h. Minimal Inhibitory Concentration, (MIC) is defined as the lowest inhibitory concentration showing no visible growth according to the NCCLS Guidelines.

E. faecalis F84 = assay: Checkerboard combination study (FIC index); format: cell-based, Enterococcus faecalis; conditions: for FIC index: MDR isolate
Description: Enterococcus faecalis, F84. A multidrug resistant clinical isolate.
(§1) The synergistic effect was studied by checkerboard combination studies exposing cells to 0-64 μg/ml anti-infective agent in the absence or presence of trans-flupenthixol, cis-flupenthixol or trans-clopenthixol. Each experiment was repeated in tripleduplicate. MIC values represent the mean values of two separate experiments,
A log phase culture of bacteria was diluted with fresh pre-warmed medium and adjusted to a defined OD at 600 nm in order to give a final concentration of 1×10^4 bacteria/ml medium in each well. […] Anti-infective agent was added to the bacterial culture in the wells in two-fold dilutions in order to give final concentrations ranging from 0 to 64 μg/ml Trays were incubated at 37° C. for 16 h. Wells were assessed visually for growth. The Fractional Inhibitory Concentration (FIC) was calculated for each anti-infective agent alone and in combination with trans-flupenthixol, cis-flupenthixol or trans-clopenthixol. The following formulae were used to calculate the FIC index:
(§2) FIC=FICchemosensitising compound+FICanti-infective agent
(§3) FICchemosensitising compound=(MICchemosensitising compound+anti-infective agent)/(MICchemosensitising compound)
(§4) FICanti-infective agent=(MICanti-infective agent+chemosensitising compound/(MICanti-Infective agent)
(§5) Synergy was defined as a FIC index of <0.5.

[3] = clinical trial versus placebo, Johnstone et al.; cited from earlier work
E. coli LN 3164 = assay: Checkerboard combination study (FIC index); format: cell-based; conditions: MDR isolate
Description: E. coli, LN 3164. Acr AB-ToIC MDR in vitro-selected mutant. Resistant to tetracycline, beta-lactams, fluoroquinolones, chloramphenicol and aminoglycosides.
as §1
(§6) A log phase culture of bacteria was diluted with fresh pre-warmed medium and adjusted to a defined OD at 600 nm in order to give a final concentration of 1×10^4 bacteria/ml medium in each well. Each chemosensitising compound was added to the bacterial culture in the wells in two-fold dilutions in order to give final concentrations ranging from 0 to 8 μg/ml. Anti-infective agent was added to the bacterial culture in the wells in two-fold dilutions in order to give final concentrations ranging from 0 to 64 μg/ml Trays were incubated at 37° C. for 16 h. Wells were assessed visually for growth. The Fractional Inhibitory Concentration (FIC) was calculated for each anti-infective agent alone and in combination with trans-flupenthixol, cis-flupenthixol or trans-clopenthixol. The following formulae were used to calculate the FIC index:
as §2, §3, §4, §5

E. faecalis F86 = assay: Checkerboard combination study (FIC index); format: cell-based, Enterococcus faecalis; conditions: anti-infective agent Dicloxacillin; isolate susceptible (S)
Description: Enterococcus faecalis, F86. Susceptible clinical isolate. No development of resistance.
as §1, §6, §2, §3, §4, §5

S. aureus E45 = assay: Checkerboard combination study (FIC index); format: cell-based, Staphylococcus aureus; conditions: isolate resistant (R)
Description: Staphylococcus aureus E45 MRSA. Clinical isolate. Resistant to methicillin. Susceptible to teicoplanin chloramphenicol, fosfomycin, netilmicin and vancomycin.
as §1, §6, §2, §3, §4, §5

S. aureus O11 = assay: Checkerboard combination study (FIC index); format: cell-based, Staphylococcus aureus; conditions: anti-infective agent Dicloxacillin; isolate susceptible (S)
Description: Staphylococcus aureus O11. Clinical isolate resistant to penicillin. Susceptible to methicillin, tetracycline, beta-lactams, fluoroquinolones, chloramphenicol and aminoglycosides.
as §1, §6, §2, §3, §4, §5

E. coli 331ME = assay: Checkerboard combination study (FIC index); format: cell-based; conditions: MDR isolate
Description: E. coli 331 ME. In vivo-selected multidrug resistant clinical isolates of E. coli. Strains were isolated from a patient with severe cystitis/urosepsis. Resistant to tetracycline, beta-lactams, fluoroquinolones, chloramphenicol and aminoglycosides.
as §1, §6, §2, §3, §4, §5

P. aeruginosa 432b = assay: Checkerboard combination study (FIC index); format: cell-based; conditions: isolate resistant (R)
Description: P. aeruginosa 432b. Clinical multidrug resistant isolate. Resistant to tetracycline, beta-lactams, fluoroquinolones, and aminoglycosides. Beta-lactamase producing, changes in Penicillin Binding Proteins and changes in Outer Membrane Proteins.
as §1, §6, §2, §3, §4, §5

[4] = tested on: non-resistant mouse pathogen isolate of Streptococcus pneumoniae; conditions: Kristiansen et al. 1998; cited from earlier work
[5] = anti-infective agent Dicloxacillin
[6] = anti-infective agent Ciprofloxacin
[7] = anti-infective agent Gentamicin
[8] = anti-infective agent Piperacillin
[9] = anti-infective agent Fucidic acid

For OCCN1CCN(CCCN2c3ccccc3Sc3ccc(Cl)cc32)CC1 [Perphenazine, perphenazine], which DR ratio (E. coli, LN 3164 [1]; E. coli LN 3164) is on record?
Its DR ratio is 4.

What about the MIC (E. coli, LN 3164 [2]; 37° C.) of the same molecule?
The MIC was 125 µg/mL.

For OCCN1CCN(CC/C=C2\c3ccccc3Sc3ccc(C(F)(F)F)cc32)CC1 [trans-flupenthixol], which FIC index (E. faecalis F84; [5]) is on record?
Its FIC index is 0.06.

And the FIC index (E. faecalis F84; anti-infective agent Vanomycin)?
The FIC index was 0.13.

What about the “anti-psychotic effect (in words)” value [3] of the same molecule?
Its value is “no activity as an anti-psychotic”.

What about the FIC index (E. coli LN 3164; [6]) of the same molecule?
The FIC index was 0.13.

What about the FIC index (E. coli LN 3164; [7]) of the same molecule?
Its FIC index is 0.063.

What about the FIC index (E. coli LN 3164; [8]) of the same molecule?
The FIC index was 0.13.

And the DR ratio (E. coli, LN 3164 [1]; E. coli LN 3164)?
Its DR ratio is 64.

What about the FIC index (E. faecalis F86) of the same molecule?
Its FIC index is 0.50.

What about the FIC index (S. aureus E45; [5]) of the same molecule?
Its FIC index is 0.13.

And the FIC index (S. aureus E45; [9])?
The FIC index was 0.13.

And the FIC index (S. aureus O11)?
The FIC index was 0.50.

What about the MIC (E. coli, LN 3164 [2]; 37° C.) of the same molecule?
Its MIC is 32 µg/mL.

What about the FIC index (E. coli 331ME; [6]) of the same molecule?
Its FIC index is 0.006.

What about the FIC index (E. coli 331ME; [7]) of the same molecule?
Its FIC index is 0.02.

What about the FIC index (E. coli 331ME; [8]) of the same molecule?
Its FIC index is 0.13.

What about the FIC index (P. aeruginosa 432b; [6]) of the same molecule?
Its FIC index is 0.03.

And the FIC index (P. aeruginosa 432b; [7])?
The FIC index was 0.06.

What about the FIC index (P. aeruginosa 432b; [8]) of the same molecule?
Its FIC index is 0.13.

Which results are given for CN(C)CCCN1c2ccccc2Sc2cccc(Cl)c21 [1-chlorpromazine]?
DR ratio (E. coli, LN 3164 [1]; E. coli LN 3164): 2; MIC (E. coli, LN 3164 [2]; 37° C.): 64 µg/mL

Which MIC value (E. faecalis F84; E. faecalis F84 cultivated in the presence of vancomycin at 4 μg/ml) does the source give for CN[C@H](CC(C)C)C(=O)N[C@H]1C(=O)N[C@@H](CC(N)=O)C(=O)N[C@H]2C(=O)N[C@H]3C(=O)N[C@H](C(=O)N[C@H](C(=O)O)c4cc(O)cc(O)c4-c4cc3ccc4O)[C@H](O)c3ccc(c(Cl)c3)Oc3cc2cc(c3O[C@@H]2O[C@H](CO)[C@@H](O)[C@H](O)[C@H]2O[C@H]2C[C@](C)(N)[C@H](O)[C@H](C)O2)Oc2ccc(cc2Cl)[C@H]1O [vancomycin, reference compound] here?
Its MIC value is 4 μ/ml.

For OCCN1CCN(CCCN2c3ccccc3Sc3ccc(C(F)(F)F)cc32)CC1 [Fluphenazine, fluphenazine], which DR ratio (E. coli, LN 3164 [1]; E. coli LN 3164) is on record?
Its DR ratio is 8.

What about the MIC (E. coli, LN 3164 [2]; 37° C.) of the same molecule?
Its MIC is 32 µg/mL.

For penicillin, which MIC [4] is on record?
The MIC was 0.02 µg/mL.

For CN(C)CCCN1c2ccccc2Sc2ccc(Cl)cc21 [chlorpromazine], which “sensitised drug resistant cells to ciprofloxacin by” value (E. coli, LN 3164 [1]; E. coli LN 3164, ciprofloxacin) is on record?
The value was 220%.

What about the DR ratio (E. coli, LN 3164 [1]; E. coli LN 3164) of the same molecule?
Its DR ratio is 4.

And the “increase in anti-DR activity, tertiary versus secondary amine” value (E. coli, LN 3164 [1]; chlorpromazine versus desmethylchlorpromazine)?
Its value is 1.6 fold.

What about the MIC (E. coli, LN 3164 [2]; 37° C.) of the same molecule?
The MIC was 32 µg/mL.

Which DR ratio (E. coli, LN 3164 [1]; E. coli LN 3164) does the source give for CN(C)CCCN1c2ccc(O)cc2Sc2ccc(Cl)cc21 [7-hydroxy-chlorpromazine, 7-hydroxychlorpromazine] here?
Its DR ratio is 1.

And the MIC (E. coli, LN 3164 [2]; 37° C.)?
Its MIC is 125 µg/mL.

For OCCN1CCN(CC/C=C2/c3ccccc3Sc3ccc(C(F)(F)F)cc32)CC1 [cis-flupenthixol, reference compound], which FIC index (E. faecalis F84; [5]) is on record?
The FIC index was 0.13.

And the FIC index (E. faecalis F84; anti-infective agent Vanomycin)?
The FIC index was 0.25.

What about the “anti-psychotic effect (in words)” value [3] of the same molecule?
Its value is “potent neuroleptic”.

What about the FIC index (E. coli LN 3164; [6]) of the same molecule?
Its FIC index is 0.25.

And the FIC index (E. coli LN 3164; [7])?
Its FIC index is 0.25.

And the FIC index (E. coli LN 3164; [8])?
Its FIC index is 0.25.

What about the DR ratio (E. coli, LN 3164 [1]; E. coli LN 3164) of the same molecule?
Its DR ratio is 32.

What about the FIC index (E. faecalis F86) of the same molecule?
Its FIC index is 0.50.

What about the FIC index (S. aureus E45; [5]) of the same molecule?
The FIC index was 0.25.

And the FIC index (S. aureus E45; [9])?
The FIC index was 0.26.

And the FIC index (S. aureus O11)?
Its FIC index is 0.50.

What about the MIC (E. coli, LN 3164 [2]; 37° C.) of the same molecule?
The MIC was 32 µg/mL.

What about the FIC index (E. coli 331ME; [6]) of the same molecule?
The FIC index was 0.013.

What about the FIC index (E. coli 331ME; [7]) of the same molecule?
Its FIC index is 0.06.

And the FIC index (E. coli 331ME; [8])?
Its FIC index is 0.25.

And the FIC index (P. aeruginosa 432b; [6])?
Its FIC index is 0.06.

What about the FIC index (P. aeruginosa 432b; [7]) of the same molecule?
Its FIC index is 0.13.

What about the FIC index (P. aeruginosa 432b; [8]) of the same molecule?
Its FIC index is 0.25.

For CN(C)CCN1c2ccccc2Sc2ccc(Cl)cc21 [2-chloro-10-(2-dimethylaminoethyl)phenothiazine], which DR ratio (E. coli, LN 3164 [1]; E. coli LN 3164) is on record?
The DR ratio was 2.

What about the MIC (E. coli, LN 3164 [2]; Escherichia coli, LN3164, 37° C., read-out: MIC) of the same molecule?
The MIC was 64 µg/mL.
